Reference: PMC9293466 (Chembiochem, 2021)

Target: T1, Gc4EO (Gulosibacter chungangensis, UniProt A0A7J5BGR1)
T1 sequence (A0A7J5BGR1 1-529): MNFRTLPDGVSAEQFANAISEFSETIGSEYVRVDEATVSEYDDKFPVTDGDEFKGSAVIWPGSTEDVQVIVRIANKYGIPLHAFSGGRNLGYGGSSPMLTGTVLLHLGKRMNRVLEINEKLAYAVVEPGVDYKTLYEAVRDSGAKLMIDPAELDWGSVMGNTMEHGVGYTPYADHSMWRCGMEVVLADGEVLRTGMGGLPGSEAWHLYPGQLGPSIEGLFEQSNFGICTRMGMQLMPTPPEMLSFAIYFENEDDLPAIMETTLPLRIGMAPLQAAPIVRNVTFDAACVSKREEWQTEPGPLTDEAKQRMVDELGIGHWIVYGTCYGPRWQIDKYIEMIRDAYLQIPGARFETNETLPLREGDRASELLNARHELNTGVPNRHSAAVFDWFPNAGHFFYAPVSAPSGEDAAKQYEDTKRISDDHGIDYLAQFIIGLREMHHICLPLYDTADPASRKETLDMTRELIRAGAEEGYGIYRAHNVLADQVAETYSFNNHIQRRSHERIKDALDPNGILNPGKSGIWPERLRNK
Assay: X-ray crystal structure, […] Å
Format: binding
Details: covalent; C8M of FAD to His395; pH 8.0 crystals

How did the “X-ray crystal structure, 1.7 Å” value turn out when `Cc1cc2nc3c(=O)[nH]c(=O)nc-3n(C[C@H](O)[C@H](O)[C@H](O)COP(=O)(O)OP(=O)(O)OC[C@H]3O[C@@H](n4cnc5c(N)ncnc54)[C@H](O)[C@@H]3O)c2cc1C` [FAD] was run?
The value was “showing the covalent bond between the C8 M of FAD and His395”.
